PMC3625590, “NBM-T-L-BMX-OS01, Semisynthesized from Osthole, Is a Novel Inhibitor of Histone Deacetylase and Enhances Learning and Memory in Rats” (Evidence-based Complementary and Alternative Medicine : eCAM, 2013)

What was measured:
Type in all cases: in vivo, Sprague-Dawley rats
naïve rats [1] = experiment: Passive one-way inhibitory avoidance learning, naïve rats; conditions: 5 mg/kg/d i.p., 1 day and 7 days after footshock
Method: SAHA was supplied by NatureWise Biotech and Medicals Corporation (Taipei, Taiwan). […] (St. Louis, MO, USA). The BMX and SAHA stock (100 mg/mL) was dissolved in DMSO and diluted with saline to a final concentration of 0.5 mg/mL (in 0.5% DMSO/saline). […] SD rats were randomly divided into 3 groups. For the naïve animal experiments, the BMX-injected or SAHA-injected groups were injected with BMX (5 mg/kg/d) or SAHA (5 mg/kg/d) intraperitoneally 7 d prior to behavioral experiments and during the experimentation. The control group received the 0.5% DMSO/saline injection. The injection volume was 10 μL/g of body weight. The injections were performed once per day. For the amnesia experiment, the protocol was adopted from previous studies with modifications. […] The control group received the 0.5% DMSO/saline injection. The injection volume was 10 μL/g of body weight. […] The apparatus consisted of a trough-shaped alley divided by a sliding door that separates an illuminated safety compartment and a dark compartment. A shock generator that produced current was connected to the floor of the dark compartment (UGO Basile, Comerio (VA), Italy). The method used was adopted from that of previous studies with modifications. The behavioral task, including the training and testing procedures, was recorded between 8:00 AM and 6:00 PM. […]

naïve rats [2] = experiment: Water-maze learning, naïve rats; conditions: 5 mg/kg/d i.p.
Method: SAHA was supplied by NatureWise Biotech and Medicals Corporation (Taipei, Taiwan). […] (St. Louis, MO, USA). The BMX and SAHA stock (100 mg/mL) was dissolved in DMSO and diluted with saline to a final concentration of 0.5 mg/mL (in 0.5% DMSO/saline). […] SD rats were randomly divided into 3 groups. For the naïve animal experiments, the BMX-injected or SAHA-injected groups were injected with BMX (5 mg/kg/d) or SAHA (5 mg/kg/d) intraperitoneally 7 d prior to behavioral experiments and during the experimentation. The control group received the 0.5% DMSO/saline injection. The injection volume was 10 μL/g of body weight. The injections were performed once per day. For the amnesia experiment, the protocol was adopted from previous studies with modifications. […] The control group received the 0.5% DMSO/saline injection. The injection volume was 10 μL/g of body weight. […] The method was adopted from that of a previous study with modifications. A plastic circular pool 2.0 m in diameter and 0.6 m in height was filled with water (25 ± 2°C) to a depth of 20 cm. A circular platform (8 cm in diameter) was placed at a specific location from the edge of the pool and submerged 2-3 cm below the water surface. Water was made cloudy by adding toxic-free dye. Distinctive visual cues were set on the wall. For spatial learning, animals were subjected to 3 trials per day, with one trial early in the morning, one trial at noon, and another in the late afternoon. The training procedure lasted 4 days, and a total of 12 trials were given. This procedure was adopted because spaced training is a better paradigm to facilitate memory consolidation. For these trials, the rats were positioned at different starting points spaced equally around the perimeter of the pool in random order. They had 120 s to find the hidden platform. […] The time each animal took to reach the platform was recorded as the escape latency. […] The rats were placed in the pool with the platform removed, and the time they spent in each quadrant (Quadrants 1, 2, 3, and 4) was recorded. […]

[3] = test system: histone 4 lysine 12 acetylation (AcH4K12); experiment: Western blot of histone 4 lysine 12 acetylation in brain tissue after behavioural tests; conditions: 5 mg/kg/d i.p.
Method: The hippocampus tissue and primary hippocampal cells were lysed and sonicated in an RIPA buffer (50 mM Tris-HCl (pH 7.4), 150 mM NaCl, 2 mM EDTA, 1% IGEPAL CA-630, 1 mM phenylmethylsulfonyl fluoride (PMSF), 20 μg/mL pepstatin A, 20 μg/mL leupeptin, 20 μg/mL aprotinin, 50 mM NaF, and 1 mM Na3VO4). The protocol was performed as described previously. The lysate was resolved by 8% SDS-PAGE. The proteins resolved by SDS-PAGE were transferred to the PVDF membrane (Millipore, Bedford, MA, USA) and western blotting was conducted with the following antibodies: rabbit anti-acetyl histone 4 lysine 12 and mouse anti-histone 4 (Cell signaling, Danvers, MA, USA). The secondary antibodies used include the HRP-conjugated goat-anti-rabbit IgG antibody and HRP-conjugated goat-anti-mouse IgG antibody (Millipore). The membrane was developed by reacting with a chemiluminescent HRP substrate (Millipore) and exposure to X-ray film. The protein bands were quantified using the NIH Image J Software.

## O=C(CCCCCCC(=O)Nc1ccccc1)NO [SAHA, suberoylanilide hydroxamic acid, reference compound]
naïve rats [1]
  retention time in the illuminated chamber: No difference in retention performance
naïve rats [2]
  escape latency in finding the hidden platform: shortened escape latency
  visual discrimination ability, motor coordination, and motivational state (swimming speed, visible platform learning): Neither BMX nor SAHA affects
naïve rats [2]; day 5
  probe trial, time spent in target quadrant: showed no difference compared with the control group
[3]; 7 days after footshock
  H4K12 acetylation in amygdala: showed the highest H4K12 acetylation
[3]; after novel object recognition task
  H4K12 acetylation in hippocampus: showed the highest H4K12 acetylation
[3]; after water-maze experiment
  H4K12 acetylation in hippocampus: showed the highest H4K12 acetylation
